What was measured:
Assay type in all cases: cell-based
[1] = target: T1, pmeLUC (Photinus pyralis, UniProt P08659, N119G/N50D); test: Response of HEK293-pmeLUC cells to extracellular nucleotides (affinity and selectivity of the pmeLUC probe, luminescence); details: for sensitivity of pmeLUC to other nucleotides: HEK293-pmeLUC cells, FIG. 2A
T1 construct: expressed in transfected cells
Protocol: (§1) ATP was measured in the custom-made luminometer described by Rizzuto and co-workers (Brini et al., 1999; Jouaville et al., 1999). For experiments, cells were plated onto 13 mm coverslips and were placed in a 37° C. thermostatted chamber (diameter 15 mm, height 2 mm) and perfused with a saline solution supplemented with luciferin at a concentration of 5 μM. The chamber was held in a photomultiplier kept in a dark refrigerated (4° C.) box. Light emission was detected by a Thorn EMI photon counting board installed in an IBM-compatible computer. The board allowed storing of the data in the computer memory for further analysis. During the experiments the thermostatted chamber was continuously perfused with buffer by means of a Gilson peristaltic pump. Alternatively, ATP was measured in the supernatants using soluble luciferase in a Firezyme luminometer as previously described (Baricordi et al., 1999; Solini et al, 2004; Zanovello et al., 1990).
Affinity of pmeLUC for ATP is rather low, with a threshold of about 10 μM, however, subsequent ATP additions elicit further increases in light emission that allow building a calibration curve (FIG. 2B). Importantly, pmeLUC is insensitive to all other nucleotides tested (ADP, UTP, UDP and GTP) (FIG. 2A).

[2] = tested on: HEK293-pmeLUC cells; details: HEK293-pmeLUC cells, not shown
Protocol: (§2) HEK293 cells were cultured in DMEM-F12 (Sigma-Aldrich). Media were supplemented with 10% heat-inactivated FBS, 100 U/ml penicillin and 100 μg/ml streptomycin (Invitrogen corporation, San Giuliano Milanese, Italy). ACN neuroblastoma cells were cultured in DMEM supplemented with MEM non-essential amino acid solution 100× (Sigma-Aldrich). HEK293 cells were transfected with the calcium phosphate method. Cells transiently expressing the pmeLUC construct were assayed 36 hours after transfection. Clones stably expressing pmeLUC or the P2X7R were generated by culture of the transfected cells in the presence of G418 (0.8 mg/ml, added 48 hours after transfection) for 3 weeks. Stable P2X7- or pmeLUC-expressing clones were kept in the continuous presence of 0.2 mg/ml of G418 sulphate (Geneticin) (Calbiochem, la Jolla, Calif.). ACN cells were transfected with pmeLUC by lipofectamine (Invitrogen) and tested 24 hours after transfection. Briefly, cells were incubated in 250 μl serum-free transfection medium (OPTIMEM) in the presence of lipofectamine-plus-DNA (0.4 μg per well). After 3 hours incubation 1 ml of DMEM plus 10% FBS supplemented with MEM non-essential amino acid solution 100× (Sigma-Aldrich) was added. Cells were assayed 24 hours after transfection. In order to allow a high level of plasma membrane expression of the transfected constructs, cells were incubated overnight in the presence of 1 mM DTT (Mezghrani et al, 2001). Furthermore, they were also kept at room temperature (21° C.) for two hours prior to transfer into the thermostated luminometer chamber.
(§3) ATP was measured in the custom-made luminometer described by Rizzuto and co-workers (Brini et al., 1999; Jouaville et al., 1999). […] Light emission was detected by a Thorn EMI photon counting board installed in an IBM-compatible computer. […] Alternatively, ATP was measured in the supernatants using soluble luciferase in a Firezyme luminometer as previously described (Baricordi et al., 1999; Solini et al, 2004; Zanovello et al., 1990).

[3] = target: T2, human P2X7R (Homo sapiens, UniProt Q99572); test: ATP release through the P2X7 receptor in HEK293-hP2X7/pmeLUC cells, pmeLUC luminescence; details: HEK293-hP2X7/pmeLUC
T2 construct: expressed in transfected cells; host or cells: HEK293 (HEK293-hP2X7/pmeLUC)
T2 sequence (Q99572 1-595): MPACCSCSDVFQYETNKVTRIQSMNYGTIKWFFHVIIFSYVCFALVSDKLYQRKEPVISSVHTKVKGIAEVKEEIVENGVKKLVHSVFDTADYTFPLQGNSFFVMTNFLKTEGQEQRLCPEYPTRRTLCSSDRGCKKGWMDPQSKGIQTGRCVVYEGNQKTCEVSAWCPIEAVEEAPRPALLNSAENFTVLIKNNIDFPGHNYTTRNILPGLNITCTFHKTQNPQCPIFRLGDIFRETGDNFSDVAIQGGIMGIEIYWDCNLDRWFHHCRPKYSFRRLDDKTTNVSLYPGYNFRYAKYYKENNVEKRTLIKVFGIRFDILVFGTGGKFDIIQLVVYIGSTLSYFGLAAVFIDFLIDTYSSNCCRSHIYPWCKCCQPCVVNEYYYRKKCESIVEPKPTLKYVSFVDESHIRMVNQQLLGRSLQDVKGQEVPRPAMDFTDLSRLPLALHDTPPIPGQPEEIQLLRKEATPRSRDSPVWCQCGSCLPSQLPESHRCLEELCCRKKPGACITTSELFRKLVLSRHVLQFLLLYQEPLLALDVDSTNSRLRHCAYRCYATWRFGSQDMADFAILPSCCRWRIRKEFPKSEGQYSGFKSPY
Protocol: as §2, §1
Early experiments carried out not only by the authors of the present invention had shown that supernatants from cells expressing the P2X7 receptor contained a high level of ATP, which was not due to an accelerated rate of cell lysis (Baricordi et al., 1999; Adinolfi et al., 2003; Solini et al., 2004). […] To test such hypothesis several HEK293 clones were generated stably transfected with the human or rat P2X7R (HEK293-hP2X7 or HEK293-rP2X7, respectively). These clones were then transfected with pmeLUC (HEK293-P2X7/pmeLUC).

[4] = target: T3, native P2X7R (Homo sapiens, UniProt Q99572); test: ATP release from ACN neuroblastoma cells transfected with pmeLUC; details: ACN cells
T3 construct: the human ACN neuroblastoma, a cell line expressing the native P2X7R; endogenous in cells; host or cells: ACN human neuroblastoma cells, transiently transfected with pmeLUC as sensor
T3 sequence (Q99572 1-595): T2 sequence (Q99572 1-595)
Protocol: HEK293 cells were cultured in DMEM-F12 (Sigma-Aldrich). Media were supplemented with 10% heat-inactivated FBS, 100 U/ml penicillin and 100 μg/ml streptomycin (Invitrogen corporation, San Giuliano Milanese, Italy). ACN neuroblastoma cells were cultured in DMEM supplemented with MEM non-essential amino acid solution 100× (Sigma-Aldrich). HEK293 cells were transfected with the calcium phosphate method. Cells transiently expressing the pmeLUC construct were assayed 36 hours after transfection. Clones stably expressing pmeLUC or the P2X7R were generated by culture of the transfected cells in the presence of G418 (0.8 mg/ml, added 48 hours after transfection) for 3 weeks. Stable P2X7- or pmeLUC-expressing clones were kept in the continuous presence of 0.2 mg/ml of G418 sulphate (Geneticin) (Calbiochem, la Jolla, Calif.). ACN cells were transfected with pmeLUC by lipofectamine (Invitrogen) and tested 24 hours after transfection. […]
as §3
Differences in basal levels of luminescence emission are neutralized by expressing luminescence as percentage increase over basal (FIG. 3B), however, the higher basal luminescence of HEK293-hP2X7/pmeLUC might reflect a real increased level of pericellular ATP compared to HEK293-pmeLUC, rather than a higher expression of pmeLUC. In this case, reporting luminescence as percent increase over basal would mask such a difference in the extracellular ATP concentration. To clarify this issue, total pmeLUC protein was measured by western blotting (FIG. 3C). […] To measure quantitatively surface pmeLUC expression, different clones were analyzed by FACS. […]

[5] = target: T4, rat P2X7R (Rattus norvegicus, UniProt Q64663); test: ATP release through the P2X7 receptor in HEK293-rP2X7/pmeLUC cells, pmeLUC luminescence; details: HEK293-rP2X7/pmeLUC, pre-treatment with oATP, FIG. 4A
T4 construct: expressed in transfected cells; host or cells: HEK293 (HEK293-rP2X7/pmeLUC)
T4 sequence (Q64663 1-595): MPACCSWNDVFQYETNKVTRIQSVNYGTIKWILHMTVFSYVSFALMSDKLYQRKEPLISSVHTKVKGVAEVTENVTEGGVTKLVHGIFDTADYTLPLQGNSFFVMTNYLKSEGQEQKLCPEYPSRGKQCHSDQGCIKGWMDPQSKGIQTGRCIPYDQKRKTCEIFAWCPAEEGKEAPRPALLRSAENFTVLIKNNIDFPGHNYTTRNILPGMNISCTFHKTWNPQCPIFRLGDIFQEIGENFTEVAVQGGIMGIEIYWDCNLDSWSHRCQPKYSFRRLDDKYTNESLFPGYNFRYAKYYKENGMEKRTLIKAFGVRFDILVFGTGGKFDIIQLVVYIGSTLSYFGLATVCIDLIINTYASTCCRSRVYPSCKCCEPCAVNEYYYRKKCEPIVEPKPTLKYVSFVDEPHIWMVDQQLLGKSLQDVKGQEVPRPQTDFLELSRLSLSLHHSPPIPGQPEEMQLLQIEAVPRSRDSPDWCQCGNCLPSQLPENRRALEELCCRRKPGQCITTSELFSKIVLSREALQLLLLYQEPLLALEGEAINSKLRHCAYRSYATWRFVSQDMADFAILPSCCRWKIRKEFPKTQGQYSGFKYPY
Protocol: as §2
as §3, with “1990). […]” for “1990).”

T1 sequence (P08659 with tags, fused parts or gaps N50D/N119G): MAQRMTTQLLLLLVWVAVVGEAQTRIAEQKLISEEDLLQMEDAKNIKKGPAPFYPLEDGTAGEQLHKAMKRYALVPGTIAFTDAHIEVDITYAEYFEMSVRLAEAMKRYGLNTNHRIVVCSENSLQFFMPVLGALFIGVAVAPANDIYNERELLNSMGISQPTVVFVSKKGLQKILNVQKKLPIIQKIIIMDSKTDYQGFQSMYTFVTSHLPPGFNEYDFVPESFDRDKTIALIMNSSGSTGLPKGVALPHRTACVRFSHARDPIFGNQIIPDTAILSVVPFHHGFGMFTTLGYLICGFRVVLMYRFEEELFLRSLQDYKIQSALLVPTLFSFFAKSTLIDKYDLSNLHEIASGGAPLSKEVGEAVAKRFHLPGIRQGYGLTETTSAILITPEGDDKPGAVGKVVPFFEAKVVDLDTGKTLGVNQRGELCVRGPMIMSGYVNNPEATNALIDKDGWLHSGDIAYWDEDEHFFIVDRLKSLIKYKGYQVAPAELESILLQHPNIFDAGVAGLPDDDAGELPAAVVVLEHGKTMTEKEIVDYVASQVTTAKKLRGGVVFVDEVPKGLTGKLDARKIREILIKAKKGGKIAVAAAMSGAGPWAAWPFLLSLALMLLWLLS

`O=c1ccn([C@@H]2O[C@H](COP(=O)(O)OP(=O)(O)O)[C@@H](O)[C@H]2O)c(=O)[nH]1` [UDP] was tested, and the “sensitivity of pmeLUC to other nucleotides” value [1] was “insensitive”.
`O=c1ccn([C@@H]2O[C@H](COP(=O)(O)OP(=O)(O)OP(=O)(O)O)[C@@H](O)[C@H]2O)c(=O)[nH]1` [UTP] was tested, and the “sensitivity of pmeLUC to other nucleotides” value [1] was “insensitive”.
For `C[N+](C)(C)CCOC(N)=O` [carbachol], the “ATP release triggered by agonists of G protein-coupled receptors” value [2] was “negligible ATP release”.
`NCCc1c[nH]cn1` [histamine] was tested, and the “ATP release triggered by agonists of G protein-coupled receptors” value [2] was “negligible ATP release”.
`Nc1ncnc2c1ncn2[C@@H](C=O)O[C@@H](C=O)COP(=O)(O)OP(=O)(O)OP(=O)(O)O` [oATP, oxidized ATP] was tested, and the “basal luminescence after oATP pretreatment” value ([3]; n=8, untreated 12250±1500 cps) was 5800±1300 cps, the “ATP-induced luminescence increase in oATP-treated cells” value ([3]; pre-treatment with oATP, FIG. 4B) was “matches exactly that of HEK293-pmeLUC” and the “block of the BzATP-triggered luminescence increase” value ([3]; pre-treatment with 300 μM oATP for 2 hours) was “fully blocked”. For the same molecule, the “block of BzATP-induced ATP release” value ([4]; 300 μM oATP) was “fully blocked”, the “basal luminescence total level after treatment with oATP” value ([4]; n=5, before treatment 3500±350 cps) was 1500±260 cps and the “ATP-induced luminescence increase in oATP-treated cells” value [5] was “matches exactly that of HEK293-pmeLUC”. For the same molecule, the “effect on ATP-dependent luminescence increase (calibration curve; inhibition of luciferase itself)” value ([1]; calibration curve in presence and absence of oATP, not shown) was “not affected”.
